Measured values reported in patent publication US11472838B2, “Inhibitors of blood coagulation factor XIII” (Zedira GmbH, priority 2018, dated 2022).
Read-outs that look alike come from different tables or passages of the source. *1 amine or outer side, *2 acyl side, *3 side chain or, on linkers, in order; H or OH if unused. Where a SMILES comes first, the peptide text is derived from it. [ ]: non-standard residue; d: D form. The star is where a group is joined. ξ: configuration not given here. Benzoyl(3-COOH,5-NO2) = O=C(O)c1cc(C(=O)*)cc([N+](=O)[O-])c1; Nle(5E-ene,6-CO2Et) = CCOC(=O)/C=C/CC[C@H](N)C(=O)O; Isonicotinoyl(3-COOH) = O=C(O)c1cnccc1C(=O)*; X1 = COC(=O)/C=C/CC[C@H](N[*:1])C(=O)[*:2]; Pro(4-oxo) = O=C1CN[C@H](C(=O)O)C1; Ile(3ξ) = CCC(C)[C@H](N)C(=O)O; Thr(3ξ) = CC(O)[C@H](N)C(=O)O; Chg = N[C@H](C(=O)O)C1CCCCC1; Tle = CC(C)(C)[C@H](N)C(=O)O; X4 = O=C(O)c1cncc(C(=O)*)c1; αMeP = C[C@@]1(C(=O)O)CCCN1; Pip = O=C(O)[C@@H]1CCCCN1; X6 = Cc1cccc(C)c1OCC(C)N*; Nle = CCCC[C@H](N)C(=O)O; NHIsopentyl = CC(C)CCN*; Cbz = O=C(OCc1ccccc1)*

Legend:
[1] = biological target: TG2 (Homo sapiens (Human), UniProt P21980); assay: Inhibitory activity against TG2 (isopeptidase assay), Tables 3 and 4; type: biochemical; conditions: for Selectivity: TG2 versus FXIII
Chain of TG2 (P21980 whole entry): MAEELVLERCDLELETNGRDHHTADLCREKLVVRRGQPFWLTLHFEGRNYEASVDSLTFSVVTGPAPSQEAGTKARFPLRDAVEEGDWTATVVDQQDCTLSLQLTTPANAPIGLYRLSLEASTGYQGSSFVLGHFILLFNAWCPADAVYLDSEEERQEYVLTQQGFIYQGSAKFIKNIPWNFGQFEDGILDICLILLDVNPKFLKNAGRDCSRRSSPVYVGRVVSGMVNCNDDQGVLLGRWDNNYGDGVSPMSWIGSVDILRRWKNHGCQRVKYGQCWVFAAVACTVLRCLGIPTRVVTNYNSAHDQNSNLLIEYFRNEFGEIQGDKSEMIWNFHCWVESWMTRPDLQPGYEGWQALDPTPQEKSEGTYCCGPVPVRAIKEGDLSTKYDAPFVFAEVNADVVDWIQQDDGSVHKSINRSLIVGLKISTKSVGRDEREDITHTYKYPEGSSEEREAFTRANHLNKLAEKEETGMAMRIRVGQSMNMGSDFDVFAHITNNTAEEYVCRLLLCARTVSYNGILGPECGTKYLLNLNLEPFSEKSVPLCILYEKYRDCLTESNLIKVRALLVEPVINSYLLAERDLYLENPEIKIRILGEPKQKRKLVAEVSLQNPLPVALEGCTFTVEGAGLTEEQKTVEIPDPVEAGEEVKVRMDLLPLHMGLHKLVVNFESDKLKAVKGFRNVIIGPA

[2] = in vitro
Procedure: Further, the stability of compounds in plasma was determined as prerequisite for drug-likeness. Briefly, after spiking the chemical entities, the plasma was incubated at 37° C. At certain time points (e.g. at 15 and 120 minutes), 3 vol. cold MeOH were added to extract the compounds. After centrifugation, the supernatant was analyzed by HPLC. The half life was calculated based on the respective calibration curve.

[3] = biological target: FXIII (Homo sapiens (Human), UniProt P00488); assay: Inhibitory activity against FXIII (isopeptidase assay), Tables 3 and 4; type: biochemical;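 note: FXIIIa activity read with a peptide substrate derived from the α2-antiplasmin N-terminal dodecapeptide, FXIII activated beforehand at room temperature, inhibitor-free wells with DMSO buffer as control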
Chain of FXIII (P00488 39-732): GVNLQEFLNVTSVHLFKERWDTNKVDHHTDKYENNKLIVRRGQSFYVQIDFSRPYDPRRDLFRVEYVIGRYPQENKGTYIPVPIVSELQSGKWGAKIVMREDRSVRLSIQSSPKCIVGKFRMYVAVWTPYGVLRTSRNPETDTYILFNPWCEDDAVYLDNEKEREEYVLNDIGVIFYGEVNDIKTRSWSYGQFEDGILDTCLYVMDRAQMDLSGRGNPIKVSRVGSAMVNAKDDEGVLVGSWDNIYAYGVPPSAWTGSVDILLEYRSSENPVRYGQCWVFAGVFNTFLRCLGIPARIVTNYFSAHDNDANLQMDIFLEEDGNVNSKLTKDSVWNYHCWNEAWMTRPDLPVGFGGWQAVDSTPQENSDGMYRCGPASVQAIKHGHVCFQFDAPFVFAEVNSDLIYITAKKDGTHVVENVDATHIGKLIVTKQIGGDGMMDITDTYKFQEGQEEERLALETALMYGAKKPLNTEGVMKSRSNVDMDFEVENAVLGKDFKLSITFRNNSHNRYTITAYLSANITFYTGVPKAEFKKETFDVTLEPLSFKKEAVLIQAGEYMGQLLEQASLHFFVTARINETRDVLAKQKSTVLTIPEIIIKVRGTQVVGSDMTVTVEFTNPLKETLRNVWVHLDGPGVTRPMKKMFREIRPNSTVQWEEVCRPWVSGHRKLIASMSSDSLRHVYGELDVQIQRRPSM

[4] = isopeptidase assay, Table 3, read-out: IC50 [nM] TG2
[5] = isopeptidase assay, Table 3, read-out: IC50 [nM] FXIII

| Selectivity ([1]; isopeptidase assay, Table 3) | IC50 [1, 4] [nM] | recovery at 2 h [2] [%] | IC50 [3, 5] [nM] | Selectivity ([1]; Table 4) | IC50 ([1]; Table 4, read-out: TG2 IC50) [nM] | half-life ([2]; plasma) [min] | IC50 ([3]; Table 4, read-out: FXIII IC50) [nM] | Compound | recovery in plasma determined by HPLC ([2]; plasma, 37° C., over a period of 2 hours) [%] |
| --- | --- | --- | --- | --- | --- | --- | --- | --- | --- |
| 2.4 | 64 | > 75 | 27 | – | – | – | – | COC(=O)/C=C/CC[C@H](NC(=O)c1cncc(C(=O)O)c1)C(=O)N[C@H](C(=O)N1CCC[C@H]1C(=O)N[C@H](C(=O)N[C@H](C(N)=O)C1CCCCC1)C1CCCCC1)C(C)(C)C [Compound 27] (X4-[X1][Tle]P[Chg][Chg]-NH2) | – |
| – | – | – | – | 0.54 | 227 | < 15 | 420 | COC(=O)/C=C/CC[C@H](NC(=O)[C@H](CC(N)=O)NC(C)=O)C(=O)N[C@@H](CCC(=O)O)C(=O)N[C@@H](CCC(N)=O)C(=O)N[C@H](C(=O)N[C@@H](CO)C(=O)N1CCC[C@H]1C(=O)N[C@@H](CC(C)C)C(=O)N[C@H](C(=O)N[C@@H](CC(C)C)C(=O)N[C@@H](CC(C)C)C(=O)N[C@@H](CCCCN)C(=O)O)C(C)O)C(C)C (some centres unmarked) [Ref. 17, reference compound] (Ac-N[X1]EQVSPL[Thr(3ξ)]LLK-OH) | – |
| 1.1 | 14 | > 75 | 13 | – | – | – | – | COC(=O)/C=C/CC[C@H](NC(=O)c1cc(C(=O)O)cc([N+](=O)[O-])c1)C(=O)N[C@H](C(=O)N1CC(=O)C[C@H]1C(=O)N[C@H](C(=O)N[C@H](C(N)=O)C1CCCCC1)C1CCCCC1)C(C)(C)C [Compound 4] ({Benzoyl(3-COOH,5-NO2)}-[X1][Tle][Pro(4-oxo)][Chg][Chg]-NH2) | – |
| – | – | > 75 | – | 10.47 | 848 | – | 81 | CCOC(=O)/C=C/CC[C@H](NC(=O)c1cc(C(=O)O)cc([N+](=O)[O-])c1)C(=O)N[C@H](C(=O)N1CC(=O)C[C@H]1C(=O)N[C@H](C(=O)NCCC(C)C)C1CCCCC1)C(C)(C)C [Compound 40] ({Benzoyl(3-COOH,5-NO2)}-[Nle(5E-ene,6-CO2Et)][Tle][Pro(4-oxo)][Chg]-NHIsopentyl) | – |

Further lines, the molecule ahead of its results:

| Compound | Selectivity ([1]; isopeptidase assay, Table 3) | IC50 [1, 4] [nM] | recovery at 2 h [2] [%] | IC50 [3, 5] [nM] | Selectivity ([1]; Table 4) | IC50 ([1]; Table 4, read-out: TG2 IC50) [nM] | half-life ([2]; plasma) [min] | IC50 ([3]; Table 4, read-out: FXIII IC50) [nM] | recovery in plasma determined by HPLC ([2]; plasma, 37° C., over a period of 2 hours) [%] |
| --- | --- | --- | --- | --- | --- | --- | --- | --- | --- |
| CCCC[C@H](NC(=O)[C@H](CC/C=C/C(=O)OC)NC(=O)[C@@H]1CC(=O)CN1)C(=O)N[C@H](C(=O)N[C@@H](CC(C)C)C(=O)N1CCC[C@H]1C(=O)N[C@@H](Cc1c[nH]c2ccccc12)C(=O)O)C(C)CC (some centres unmarked) [Ref. 15, reference compound] (H-[Pro(4-oxo)][X1][Nle][Ile(3ξ)]LPW-OH) | – | – | – | – | 0.52 | 117 | < 15 | 226 | – |
| COC(=O)/C=C/CC[C@H](NC(=O)c1cc(C(=O)O)cc([N+](=O)[O-])c1)C(=O)N[C@H](C(=O)N1CC(=O)C[C@H]1C(=O)N[C@@H](CC(C)C)C(=O)N1CCC[C@@]1(C)C(=O)NC(C)COc1c(C)cccc1C)C(C)(C)C (some centres unmarked) [Compound 30] ({Benzoyl(3-COOH,5-NO2)}-[X1][Tle][Pro(4-oxo)]L[αMeP]-X6) | 1.1 | – | > 75 | 15 | – | – | – | – | – |
| CCOC(=O)/C=C/CC[C@H](NC(=O)c1ccncc1C(=O)O)C(=O)N[C@H](C(=O)N1CC(=O)C[C@H]1C(=O)N[C@H](C(=O)N[C@H](C(N)=O)C1CCCCC1)C1CCCCC1)C(C)(C)C [8a/b] ({Isonicotinoyl(3-COOH)}-[Nle(5E-ene,6-CO2Et)][Tle][Pro(4-oxo)][Chg][Chg]-NH2) | 19.9 | 417 | – | 21 | – | – | – | – | > 75 |
| CCCC[C@H](NC(=O)[C@H](CC/C=C/C(=O)OC)NC(=O)[C@@H]1CC(=O)CN1)C(=O)N[C@H](C(=O)N[C@@H](CC(C)C)C(=O)N1CCC[C@H]1C(=O)N[C@@H](Cc1c[nH]c2ccccc12)C(=O)N1CCC[C@H]1C(=O)O)C(C)CC (some centres unmarked) [Ref. 23, reference compound] (H-[Pro(4-oxo)][X1][Nle][Ile(3ξ)]LPWP-OH) | – | – | – | – | 1.82 | 102 | < 15 | 56 | – |
| CCOC(=O)/C=C/CC[C@H](NC(=O)OCc1ccccc1)C(=O)N[C@H](C(=O)N1CCC[C@H]1C(=O)N[C@@H](CC(C)C)C(=O)N[C@H](C(N)=O)C1CCCCC1)C1CCCCC1 [Ref. 12, reference compound] (Cbz-[Nle(5E-ene,6-CO2Et)][Chg]PL[Chg]-NH2) | – | – | – | – | 0.05 | 345 | – | 6770 | – |
| COC(=O)/C=C/CC[C@H](NC(=O)[C@H](CC(N)=O)NC(C)=O)C(=O)N[C@@H](CCC(=O)O)C(=O)N[C@@H](CCC(N)=O)C(=O)N[C@H](C(=O)N[C@@H](CO)C(=O)N1CCC[C@H]1C(=O)N[C@@H](CC(C)C)C(=O)N[C@H](C(=O)N[C@@H](CC(C)C)C(=O)N[C@@H](CC(C)C)C(=O)O)C(C)O)C(C)C (some centres unmarked) [Ref. 18, reference compound] (Ac-N[X1]EQVSPL[Thr(3ξ)]LL-OH) | – | – | – | – | 0.34 | 341 | < 15 | 995 | – |
| CCOC(=O)/C=C/CC[C@H](NC(=O)OCc1ccccc1)C(=O)N[C@H](C(=O)N1CCCC[C@H]1C(=O)N[C@@H](CC(C)C)C(=O)OC)C(C)C [Ref. 6, reference compound] (Cbz-[Nle(5E-ene,6-CO2Et)]V[Pip]L-OMe) | – | 48 | – | > 10000 | – | – | – | – | – |
| CCC(CC)CNC(=O)Cn1cccc(NC(=O)[C@H](CC/C=C/C(=O)OC)NC(=O)c2cncn2C)c1=O [Ref. 25] | – | – | – | – | – | – | – | > 10 | – |
